Source: US8785594B2, “Glycoproteins and glycosylated cells and a method for the preparation of the same” (Glycom A/S, priority 2007, dated 2014)
Marks after values point to notes of the source that are not given here.

How the values were obtained:
Type in all cases: cell-based
[1] = system: B16.BL6 melanoma cells; test: Flow cytometry with FITC-labelled GS1B4 (Example 13)
Protocol: The alpha-Gal trisaccharide probe (9) was dissolved in HBSS (Gibco Invitrogen, Taastrup, Denmark) and passed through a sterile filter (0.2 μm Supor® Acrodisc® 13, Gelman Sciences, Ann Arbor, Mich.). Three different concentrations of the alpha-Gal trisaccharide-carbamate (9) were made. Five small flasks were prepared with 606 μL of cell suspension containing a total of 10^6 B16.BL6 cells in addition to 4 mL of one of the conjugate solutions. Each flask contained a total volume of 4.6 mL. The cells were incubated with the “Glycom conjugate” for either 3 or 1.5 hours at 37° C.
After conjugation, the supernatant from each flask was transferred to separate 10 mL tubes (TPP, Trasadingen Switzerland). Cells were washed twice by adding PBS to the flasks and immediately removing it again. The cells were harvested with Cell Dissociation Solution (2 mL per flask) (Sigma-aldrich, Saint Louis, Mo.). After 5 minutes, cells were transferred to the 10 mL test tubes. The cells were centrifuged for 5 minutes at 300 G at 20° C. and resuspended in 0.5 mL of PBS. Cell concentration and viability was determined by microscopic evaluation of trypan blue stained cell samples.
One hundred μL of cell suspension containing 1×10^5 cells were incubated for 15 minutes at 4° C. with 10 μg per mL (1:100 dilution) of FITC-labelled GS1B4 in PBS. Rabbit red blood cells (A) were used for comparison,
As very few cells were available for flow cytometry analysis the exact cell concentration was not determined. Instead, the amount of cells used was estimated to 0.4×10^5. The cells were incubated for 15 minutes at 4° C. with 4 μg per mL of FITC-labelled GS1B4 in PBS. Rabbit red blood cells (B) were used for comparison.
Mean and median cell fluorescence intensity was determined by flow cytometry.

[2] = system: B16.BL6 melanoma cells; test: Flow cytometry with FITC-labelled GS1B4 (Example 15); settings: all conjugation reactions, 10 μg-20 mg regular probe
Protocol: Radioactive labelled and regular alpha-Gal trisaccharide-carbamate (9) probe (labeled on the cyclic carbamate carbon) was dissolved in HBSS containing D-glucose (without Mg^2+ and Ca^2+) (Gibco Invitrogen, Taastrup, Denmark) and passed through sterile filters (0.2 μm Supor® Acrodisc® 13, Gelman Sciences, Ann Arbor, Mich.). Eight different concentrations of radioactive labelled alpha-Gal trisaccharide-carbamate (9) (1 μg, 10 μg, 100 μg, 1 mg, 5 mg, 10 mg, 15 mg and 20 mg) and […] concentrations of regular “Glycom conjugate” (10 μg, 100 μg, 1 mg, 5 mg, 10 mg, 15 mg and 20 mg) were used. Twelve flasks (300 cm^2) (TPP, Trasadingen Switzerland) were prepared, each containing 10×10^6 B16.BL6 cells, for conjugation with the radioactive labelled trisaccharide probe, and 8 flasks (150 cm^2) (TPP, Trasadingen Switzerland) were prepared, each containing 5×10^6 B16.BL6 cells, for conjugation with the non-radioactive conjugate. […] This was repeated 3 times before cell concentration and viability was determined by microscopic evaluation of trypan blue stained cell samples.
Cells conjugated with regular trisaccharide probe were analysed by flow cytometry. […] Mean fluorescence intensity of cells stained with GS1B4 was measured by flow cytometry.

[3] = system: B16.BL6 melanoma cells; test: Scintillation, epitopes per cell (Example 15)
Protocol: Radioactive labelled and regular alpha-Gal trisaccharide-carbamate (9) probe (labeled on the cyclic carbamate carbon) was dissolved in HBSS containing D-glucose (without Mg^2+ and Ca^2+) (Gibco Invitrogen, Taastrup, Denmark) and passed through sterile filters (0.2 μm Supor® Acrodisc® 13, Gelman Sciences, Ann Arbor, Mich.). Eight different concentrations of radioactive labelled alpha-Gal trisaccharide-carbamate (9) (1 μg, 10 μg, 100 μg, 1 mg, 5 mg, 10 mg, 15 mg and 20 mg) and […] of regular “Glycom conjugate” (10 μg, 100 μg, 1 mg, 5 mg, 10 mg, 15 mg and 20 mg) were used. Twelve flasks (300 cm^2) (TPP, Trasadingen Switzerland) were prepared, each containing 10×10^6 B16.BL6 cells, for conjugation with the radioactive labelled trisaccharide probe, and 8 flasks (150 cm^2) (TPP, Trasadingen Switzerland) were prepared, each containing 5×10^6 B16.BL6 cells, for conjugation with the non-radioactive conjugate. The Glycom conjugate was added and the total volume was adjusted with HBSS containing D-glucose (without Mg^2+ and Ca^2+) so that each large flask (300 cm^2) contained a final volume of 20 mL and each medium flask (150 cm^2) contained a final volume of 10 mL. Cells were incubated with the “Glycom conjugate” for 1.5 hours at 37° C. After conjugation, the supernatant from each flask was transferred to separate 50 mL tubes (TPP, Trasadingen Switzerland). The cells were harvested with Cell Dissociation Solution (10 mL per large flask and 5 mL per medium flask) (Sigma-aldrich, Saint Louis, Mo.) and transferred to the 50 mL tubes containing the supernatant. The cells were centrifuged for 5 minutes at 300 G at 20° C. and resuspended in 5 mL of PBS (without Mg^2+ and Ca^2+). This was repeated 3 times before cell concentration and viability was determined by microscopic evaluation of trypan blue stained cell samples.
Cells incubated with radioactive labelled trisaccharide probe were centrifuged for 5 minutes at 1000 G at 20° C. The supernatant was discharged and the remaining pellets were dried. Subsequently, the pellets were dissolved in 450 μl Mili-Q H2O and 1.5 mL of scintillation fluid was added. Standards for the scintillation were made by adding 500 pCi, 0.5 pCi and 0 pCi to the 3 samples of control cells. The samples were stored at room temperature for 3 days, before the cell suspensions were transferred to scintillation vials and counted.

[4] = reaction 1, 19.2 mg, 3 hours, 10 μg per mL FITC-GS1B4
[5] = reaction 2, 19.2 mg, 1.5 hours, group of 35.3% of the cells
[6] = reaction 2, 19.2 mg, 1.5 hours, group of 62.7% of the cells
[7] = reaction 4, 58 mg, 1.5 hours, group of 15.65% of the cells
[8] = reaction 4, 58 mg, 1.5 hours, group of 84.26% of the cells

In the case of O=C1N[C@@H]2O[C@H](CO)[C@@H](O[C@@H]3O[C@H](CO)[C@H](O)[C@H](O[C@H]4O[C@H](CO)[C@H](O)[C@H](O)[C@H]4O)[C@H]3O)[C@H](O)[C@H]2O1 [Compound 9, alpha-Gal trisaccharide-carbamate], the “Galα1,3Gal epitopes detected by binding of FITC-labelled GS1B4, flow cytometry” value ([1]; all conjugation reactions (1.9-58 mg, 1.5 or 3 hours)) was “found on B16.BL6 cells from all conjugation reactions”, the Mean fluorescence intensity [1, 4] was 197.8 and the Median fluorescence intensity [1, 4] was 155.4. For the same molecule, the “Share of the cells in the group of higher fluorescence intensity” value ([1]; reaction 2, 19.2 mg, 1.5 hours) was 2 (35.3% of the cells)**, the “Share of the cells in the group of lower fluorescence intensity” value ([1]; reaction 2, 19.2 mg, 1.5 hours) was 2 (62.7% of the cells)** and the Mean fluorescence intensity [1, 5] was 2940.2. It also gave a Median fluorescence intensity [1, 5] of 2196.8, a Mean fluorescence intensity [1, 6] of 161.63 and a Median fluorescence intensity [1, 6] of 125.2. The Mean fluorescence intensity ([1]; reaction 3, 1.9 mg, 1.5 hours) was 167.8, the Median fluorescence intensity ([1]; reaction 3, 1.9 mg, 1.5 hours) was 66.4 and the “Share of the cells in the group of higher fluorescence intensity” value ([1]; reaction 4, 58 mg, 1.5 hours) was 4 (15.65% of the cells). The “Share of the cells in the group of lower fluorescence intensity” value ([1]; reaction 4, 58 mg, 1.5 hours) was 4 (84.26% of the cells), the Mean fluorescence intensity [1, 7] was 770.0 and the Median fluorescence intensity [1, 7] was 504.8. For the same molecule, the Mean fluorescence intensity [1, 8] was 49.2, the Median fluorescence intensity [1, 8] was 44.1 and the “Binding of FITC-labelled GS1B4 to cells” value [2] was “no binding above background levels”.
O=[13C]1N[C@@H]2O[C@H](CO)[C@@H](O[C@@H]3O[C@H](CO)[C@H](O)[C@H](O[C@H]4O[C@H](CO)[C@H](O)[C@H](O)[C@H]4O)[C@H]3O)[C@H](O)[C@H]2O1 [radioactive labelled conjugate] was tested, and the Epitopes per cell ([3]; 1 μg conjugate added) was 1.0 × 10^6, the “Relation of scintillation counts to dose of conjugate” value ([3]; 1 μg-20 mg) was “positive correlation” and the Epitopes per cell ([3]; 10 μg conjugate added) was 0.6 × 10^6. For the same molecule, the Epitopes per cell ([3]; 100 μg conjugate added) was 6.8 × 10^6, the Epitopes per cell ([3]; 1 mg conjugate added) was 33.9 × 10^6 and the Epitopes per cell ([3]; 5 mg conjugate added) was 175.3 × 10^6. For the same molecule, the Epitopes per cell ([3]; 15 mg conjugate added) was 501.2 × 10^6 and the Epitopes per cell ([3]; 20 mg conjugate added) was 515.2 × 10^6.
